Source: BigSolDB 2.1

CC(=CC(C)=Nc1c(C)cc(C)cc1C)Nc1c(C)cc(C)cc1C
solubility (mole fraction)
Conditions | 273.15 K | 278.15 K | 283.15 K | 288.15 K | 293.15 K | 298.15 K | 303.15 K
in THF | 0.215 | 0.233 | 0.253 | 0.273 | 0.295 | 0.317 | 0.346
in ethanol | 0.00285 | 0.00317 | 0.00373 | 0.00471 | 0.00561 | 0.00678 | 0.00849
in methanol | 0.0008 | 0.00094 | 0.00117 | 0.00137 | 0.00169 | 0.00205 | 0.00275
in n-hexane | 0.0989 | 0.106 | 0.124 | 0.148 | 0.181 | 0.216 | 0.255
in toluene | 0.189 | 0.211 | 0.236 | 0.264 | 0.295 | 0.33 | 0.372
